In ChEMBL document CHEMBL1158110, “Chaetopyranin, a benzaldehyde derivative, and other related metabolites from Chaetomium globosum, an endophytic fungus derived from the marine red alga Polysiphonia urceolata” (J Nat Prod, 2006):
Values after ≈ are worked out from the molar mass of the structure shown.

Columns and labels:
[1] = tested on: Radical scavenging activity; test: Antioxidant activity assessed as DPPH free radical scavenging activity; assay type: functional
A549 = test: Cytotoxicity against human A549 cells; assay type: functional, cell-based
HMEC = test: Cytotoxicity against HMEC; assay type: cell-based; details: Homo sapiens
SMMC-7721 = test: Cytotoxicity against human SMMC7721 cells; assay type: functional, cell-based

IC50 [1] | Compound | IC50 (A549) | IC50 (HMEC) | IC50 (SMMC-7721)
88 µg/mL (≈ 295 µM) | CCC/C=C/c1cc2c(C=O)c(O)c(CC=C(C)C)cc2o1 |  |  | 
35 µg/mL (≈ 111 µM) | CC(C)=CCc1cc2c(c(C=O)c1O)CCC(/C=C/C(C)O)O2 (configuration not stated) [CHAETOPYRANIN] | 39.1 µg/mL (≈ 124 µM) | 15.4 µg/mL (≈ 48.7 µM) | 28.5 µg/mL (≈ 90.1 µM)
26 µg/mL (≈ 86 µM) | C/C=C/CCCCc1c(O)cc(CC=C(C)C)c(O)c1C=O [ISOTETRAHYDROAUROGLAUCIN] |  |  | 
62 µg/mL (≈ 206 µM) | COc1cc(O)c2c(c1)C(=O)c1c(O)c(C)cc(O)c1C2=O [PARIETIN] |  |  | 
